In patent publication US20240101540A1, “TARGETED PROTEIN DEGRADATION OF PARP14 FOR USE IN THERAPY” (Ribon Therapeutics, Inc., priority 2022, published 2024) one finds DC50 data, which are given here for 14 compounds.

Each structure is given as a SMILES string. Where a name gives a salt, the structure may show the parent alone.

The target in the assay is T1, HiBiT tagged PARP14 (Homo sapiens, UniProt Q460N5).
T1 construct: engineered to contain a HiBiT tag on both alleles of the PARP14 gene; endogenous in cells; host or cells: Jurkat cells stably transfected with LgBiT (Promega), PARP14 locus edited by CRISPR/Cas9
T1 sequence (Q460N5 whole entry): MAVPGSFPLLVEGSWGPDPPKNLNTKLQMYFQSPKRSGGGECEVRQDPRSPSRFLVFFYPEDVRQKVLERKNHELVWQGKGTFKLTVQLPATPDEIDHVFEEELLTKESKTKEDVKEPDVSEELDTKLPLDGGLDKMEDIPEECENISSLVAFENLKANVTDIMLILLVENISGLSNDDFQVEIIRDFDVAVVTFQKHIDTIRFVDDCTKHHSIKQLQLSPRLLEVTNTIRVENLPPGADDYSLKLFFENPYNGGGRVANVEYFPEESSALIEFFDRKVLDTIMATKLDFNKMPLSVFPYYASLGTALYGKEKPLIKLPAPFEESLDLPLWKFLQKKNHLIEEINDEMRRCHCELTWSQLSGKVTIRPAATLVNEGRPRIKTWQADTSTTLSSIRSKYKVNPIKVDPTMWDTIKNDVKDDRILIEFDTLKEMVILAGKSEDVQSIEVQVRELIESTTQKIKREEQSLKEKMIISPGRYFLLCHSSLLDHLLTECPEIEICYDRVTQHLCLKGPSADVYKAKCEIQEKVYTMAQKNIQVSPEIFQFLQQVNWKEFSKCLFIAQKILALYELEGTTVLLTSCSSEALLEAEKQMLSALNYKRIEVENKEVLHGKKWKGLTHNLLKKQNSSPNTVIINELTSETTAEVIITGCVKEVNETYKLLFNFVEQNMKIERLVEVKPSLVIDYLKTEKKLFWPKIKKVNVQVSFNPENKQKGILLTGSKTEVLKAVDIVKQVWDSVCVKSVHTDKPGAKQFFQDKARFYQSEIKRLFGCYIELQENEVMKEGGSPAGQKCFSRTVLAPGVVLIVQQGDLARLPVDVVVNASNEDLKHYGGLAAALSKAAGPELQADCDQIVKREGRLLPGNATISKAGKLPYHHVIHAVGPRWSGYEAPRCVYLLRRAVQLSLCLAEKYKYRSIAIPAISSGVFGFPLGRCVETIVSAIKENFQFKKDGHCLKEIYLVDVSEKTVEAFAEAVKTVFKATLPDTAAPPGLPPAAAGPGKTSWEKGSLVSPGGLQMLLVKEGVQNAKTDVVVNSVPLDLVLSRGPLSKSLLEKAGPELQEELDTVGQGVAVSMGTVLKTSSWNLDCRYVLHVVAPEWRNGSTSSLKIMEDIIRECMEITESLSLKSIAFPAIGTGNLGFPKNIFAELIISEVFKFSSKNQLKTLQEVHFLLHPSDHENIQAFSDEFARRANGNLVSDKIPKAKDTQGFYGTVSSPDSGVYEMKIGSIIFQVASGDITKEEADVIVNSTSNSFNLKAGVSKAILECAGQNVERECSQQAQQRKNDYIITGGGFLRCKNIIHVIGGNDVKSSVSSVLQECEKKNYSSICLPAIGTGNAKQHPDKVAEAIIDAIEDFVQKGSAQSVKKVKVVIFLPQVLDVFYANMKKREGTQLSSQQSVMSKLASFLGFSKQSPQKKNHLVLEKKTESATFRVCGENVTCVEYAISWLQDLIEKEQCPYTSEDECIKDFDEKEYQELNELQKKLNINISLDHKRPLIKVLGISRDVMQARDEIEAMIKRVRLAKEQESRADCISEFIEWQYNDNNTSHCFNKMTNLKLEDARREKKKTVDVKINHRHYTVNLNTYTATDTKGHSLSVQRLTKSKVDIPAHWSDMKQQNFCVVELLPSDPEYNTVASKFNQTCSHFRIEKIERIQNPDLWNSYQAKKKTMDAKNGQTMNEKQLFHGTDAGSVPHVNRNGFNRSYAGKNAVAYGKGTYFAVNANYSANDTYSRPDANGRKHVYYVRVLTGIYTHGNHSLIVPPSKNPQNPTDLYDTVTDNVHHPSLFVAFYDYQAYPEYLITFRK
The assay can be described thus: HiBiT assay for the degradation of PARP14 (HiBiT tagged PARP14 in LgBiT expressing Jurkat cells, 2 or 24 hours). It counts as cell-based. Conditions: Assay B (Example B): HiBiT tagged PARP14 degradation in LgBiT expressing Jurkat cells, read-out: DC50. The gist of the method:
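Luminescence from HiBiT–LgBiT complementation served as proxy for endogenous PARP14 level in edited LgBiT Jurkat cells (5,000/well). After 2 or 24 h compound exposure at 37 °C, signal read with Live Cell Substrate, expressed as % of 0.1% DMSO control, and fitted (4-parameter, free Hill) for DC50.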
In general terms: HiBiT is a short tag that completes a luciferase, so light tracks the accessible tagged protein.

As usually defined, the DC50 is the concentration at which degradation of the target reaches its halfway point. `O=C1CCC(Nc2ccc(N3CCC(C(=O)N4CCC(COc5cc(F)c6c(=O)[nH]c(CSC7CCOCC7)nc6c5)CC4)CC3)c(F)c2)C(=O)N1` (centres unmarked) [Example 153, 3-((3-fluoro-4-(4-(4-(((5-fluoro-4-oxo-2-(((tetrahydro-2H-pyran-4-yl)thio)methyl)-3,4-dihydroquinazolin-7-yl)oxy)methyl)piperidine-1-carbonyl)piperidin-1-yl)phenyl)amino)piperidine-2,6-dione]: the 50% degradation concentration (DC50) was below 0.03 µM. The same measure for `O=C1CCC(Nc2ccc(N3CCN(C(=O)N4CCC(COc5cc(F)c6c(=O)[nH]c(CSC7CCOCC7)nc6c5)CC4)CC3)c(F)c2)C(=O)N1` (centres unmarked) [Example 154, 3-((3-fluoro-4-(4-(4-(((5-fluoro-4-oxo-2-(((tetrahydro-2H-pyran-4-yl)thio)methyl)-3,4-dihydroquinazolin-7-yl)oxy)methyl)piperidine-1-carbonyl)piperazin-1-yl)phenyl)amino)piperidine-2,6-dione]: below 0.03 µM. On to `Cn1nc(N2CCC(=O)NC2=O)c2ccc(N3CCC(N4CCC(COc5cc(F)c6c(=O)[nH]c(CSC7CCOCC7)nc6c5)CC4)CC3)cc21` [Example 155, 1-(6-(4-(((5-fluoro-4-oxo-2-(((tetrahydro-2H-pyran-4-yl)thio)methyl)-3,4-dihydroquinazolin-7-yl)oxy)methyl)-[1,4′-bipiperidin]-1′-yl)-1-methyl-1H-indazol-3-yl)dihydropyrimidine-2,4(1H,3H)-dione], for which the DC50 was below 0.03 µM. The same measure for `Cn1nc(C2CCC(=O)NC2=O)c2ccc(N3CCC(N4CC(N5CCC(COc6cc(F)c7c(=O)[nH]c(CSC8CCOCC8)nc7c6)CC5)C4)CC3)cc21` (centres unmarked) [Example 156, 3-(6-(4-(3-(4-(((5-fluoro-4-oxo-2-(((tetrahydro-2H-pyran-4-yl)thio)methyl)-3,4-dihydroquinazolin-7-yl)oxy)methyl)piperidin-1-yl)azetidin-1-yl)piperidin-1-yl)-1-methyl-1H-indazol-3-yl)piperidine-2,6-dione]: below 0.03 µM; for `O=C1CCN(c2ccc(N3CCC(N4CC(N5CCC(COc6cc(F)c7c(=O)[nH]c(CSC8CCOCC8)nc7c6)CC5)C4)CC3)c(F)c2)C(=O)N1` [Example 157, 1-(3-fluoro-4-(4-(3-(4-(((5-fluoro-4-oxo-2-(((tetrahydro-2H-pyran-4-yl)thio)methyl)-3,4-dihydroquinazolin-7-yl)oxy)methyl)piperidin-1-yl)azetidin-1-yl)piperidin-1-yl)phenyl)dihydropyrimidine-2,4(1H,3H)-dione]: below 0.03 µM; for `O=C1CCN(c2ccc(N3CCC(N4CCC(COc5cc(F)c6c(=O)[nH]c(CSC7CCOCC7)nc6c5)CC4)CC3)c(F)c2)C(=O)N1` [Example 158, 1-(3-fluoro-4-(4-(((5-fluoro-4-oxo-2-(((tetrahydro-2H-pyran-4-yl)thio)methyl)-3,4-dihydroquinazolin-7-yl)oxy)methyl)-[1,4′-bipiperidin]-1′-yl)phenyl)dihydropyrimidine-2,4(1H,3H)-dione formate]: below 0.03 µM. As for `Cn1nc(N2CCC(=O)NC2=O)c2ccc(N3CCC(N4CCC(COc5cc(F)c6c(=O)[nH]c(COC7CCOCC7)nc6c5)CC4)CC3)c(F)c21` [Example 159, 1-(7-fluoro-6-(4-(((5-fluoro-4-oxo-2-(((tetrahydro-2H-pyran-4-yl)oxy)methyl)-3,4-dihydroquinazolin-7-yl)oxy)methyl)-[1,4′-bipiperidin]-1′-yl)-1-methyl-1H-indazol-3-yl)dihydropyrimidine-2,4(1H,3H)-dione formate], the half-maximal degradation concentration (DC50) was below 0.03 µM. The figure for `Cn1nc(N2CCC(=O)NC2=O)c2cc(F)c(N3CCC(N4CCC(COc5cc(F)c6c(=O)[nH]c(COC7CCOCC7)nc6c5)CC4)CC3)cc21` [Example 160, 1-(5-fluoro-6-(4-(((5-fluoro-4-oxo-2-(((tetrahydro-2H-pyran-4-yl)oxy)methyl)-3,4-dihydroquinazolin-7-yl)oxy)methyl)-[1,4′-bipiperidin]-1′-yl)-1-methyl-1H-indazol-3-yl)dihydropyrimidine-2,4(1H,3H)-dione] is below 0.03 µM; for `Cn1nc(N2CCC(=O)NC2=O)c2ccc(N3CCC(N4CC(N5CCC(COc6cc(F)c7c(=O)[nH]c(CSC8CCOCC8)nc7c6)CC5)C4)CC3)cc21` [Example 161, 1-(6-(4-(3-(4-(((5-fluoro-4-oxo-2-(((tetrahydro-2H-pyran-4-yl)thio)methyl)-3,4-dihydroquinazolin-7-yl)oxy)methyl)piperidin-1-yl)azetidin-1-yl)piperidin-1-yl)-1-methyl-1H-indazol-3-yl)dihydropyrimidine-2,4(1H,3H)-dione] it is below 0.03 µM; for `O=C1CCN(c2cncc3c(N4CCC(N5CCC(COc6cc(F)c7c(=O)[nH]c(CSC8CCOCC8)nc7c6)CC5)CC4)cccc23)C(=O)N1` [Example 162, 1-(8-(4-(((5-fluoro-4-oxo-2-(((tetrahydro-2H-pyran-4-yl)thio)methyl)-3,4-dihydroquinazolin-7-yl)oxy)methyl)-[1,4′-bipiperidin]-1′-yl)isoquinolin-4-yl)dihydropyrimidine-2,4(1H,3H)-dione] it is below 0.03 µM. In the case of `Cn1nc(N2CCC(=O)NC2=O)c2cc(F)c(N3CCC(N4CCC(COc5cc(F)c6c(=O)[nH]c(CSC7CCOCC7)nc6c5)CC4)CC3)cc21` [Example 163, 1-(5-fluoro-6-(4-(((5-fluoro-4-oxo-2-(((tetrahydro-2H-pyran-4-yl)thio)methyl)-3,4-dihydroquinazolin-7-yl)oxy)methyl)-[1,4′-bipiperidin]-1′-yl)-1-methyl-1H-indazol-3-yl)dihydropyrimidine-2,4(1H,3H)-dione], the DC50 is below 0.03 µM. The same measure for `Cn1nc(N2CCC(=O)NC2=O)c2cc(F)c(N3CCC(N4CC(N5CCC(COc6cc(F)c7c(=O)[nH]c(CSC8CCOCC8)nc7c6)CC5)C4)CC3)cc21` [Example 164, 1-(5-fluoro-6-(4-(3-(4-(((5-fluoro-4-oxo-2-(((tetrahydro-2H-pyran-4-yl)thio)methyl)-3,4-dihydroquinazolin-7-yl)oxy)methyl)piperidin-1-yl)azetidin-1-yl)piperidin-1-yl)-1-methyl-1H-indazol-3-yl)dihydropyrimidine-2,4(1H,3H)-dione]: below 0.03 µM; for `O=C1CCN(c2ccc(F)c(N3CCC(N4CC(N5CCC(COc6cc(F)c7c(=O)[nH]c(CSC8CCOCC8)nc7c6)CC5)C4)CC3)c2)C(=O)N1` [Example 165, 1-(4-fluoro-3-(4-(3-(4-(((5-fluoro-4-oxo-2-(((tetrahydro-2H-pyran-4-yl)thio)methyl)-3,4-dihydroquinazolin-7-yl)oxy)methyl)piperidin-1-yl)azetidin-1-yl)piperidin-1-yl)phenyl)dihydropyrimidine-2,4(1H,3H)-dione]: below 0.03 µM; for `COc1cc(N2CCC(N3CC(N4CCC(COc5cc(F)c6c(=O)[nH]c(CSC7CCOCC7)nc6c5)CC4)C3)CC2)c(F)cc1N1CCC(=O)NC1=O` [Example 166, 1-(5-fluoro-4-(4-(3-(4-(((5-fluoro-4-oxo-2-(((tetrahydro-2H-pyran-4-yl)thio)methyl)-3,4-dihydroquinazolin-7-yl)oxy)methyl)piperidin-1-yl)azetidin-1-yl)piperidin-1-yl)-2-methoxyphenyl)dihydropyrimidine-2,4(1H,3H)-dione]: below 0.03 µM.
